Results reported in US20130216553A1, “Compositions and Methods for Modulation and Detection of Immune and Inflammatory Responses” (priority 2010, published 2013).
* marks the point of attachment. Palmitoyl = CCCCCCCCCCCCCCCC(=O)*

Assays:
[1] = system: Bone marrow-derived DCs from wild-type (WT) mice; assay: Stimulation of bone marrow dendritic cells from wild-type mice (IL-6 ELISA, surface activation markers); type: cell-based, mouse; conditions: WT BMDCs, plate-bound LPS (1 μg), MMP (10 μg) or PE DHC (2.5 μg), supernatants after 18 hrs
Description: (§1) Bone marrow cells from C57BL/6 and TLR2^−/− mice were cultured at 2×10^5 cells/ml in RPMI containing 10% FCS, 2-ME, and 20 ng/ml recombinant murine GM-CSF for 9 days. Bone marrow DCs (BMDCs) were harvested at Day 9 and were greater than 80% CD11c+. LPS (1 μg), MMP (10 μg) (a bacterial lipoprotein and known TLR-2 ligand: Palmitoyl-Cys ((RS)-2,3-di(palmitoyloxy)-propyl)-Ser-Ser-Asn-Ala-OH(pam3-Cys-Ser-Ser Asn-Ala-OH) (Bachem H-9460), PE DHC (2.5 μg) or 70% EtOH, all in 20 ul volumes, were allowed to dry in the wells of a 24-well plate overnight prior to the addition of BMDCs. BMDCs were cultured in the ligand-bound 24-well plates at 1×10^6 cells/ml in RPMI containing GM-CSF. After 18 hrs, culture supernatants were harvested and tested for IL-6 via ELISA.
(§2) The effects of PE DHC on antigen presenting cell (APC) activation in vitro were examined. Dendritic cells (BMDCs) (>85% CD11c+) were derived from the bone marrow of WT or TLR2^−/− mice and cultured either alone or with EtOH, LPS, MMP (a TLR2 ligand), or PE DHC. After 18 Ins supernatants were assayed for IL-6. […] BMDCs were also assayed for expression of the surface activation markers B7.2 and MHC class II.

[2] = system: Bone marrow-derived DCs from TLR2^−/− mice; assay: Stimulation of bone marrow dendritic cells from TLR2^−/− mice (IL-6 ELISA, surface activation markers); type: cell-based, mouse; conditions: TLR2^−/− BMDCs, plate-bound LPS (1 μg), MMP (10 μg) or PE DHC (2.5 μg), supernatants after 18 hrs
Description: as §1, §2

Substance: Palmitoyl-Cys ((RS)-2,3-di(palmitoyloxy)-propyl)-Ser-Ser-Asn-Ala-OH ({Palmitoyl-Cys((RS)-2,3-di(palmitoyloxy)-propyl)}-SSNA-OH) [MMP, a bacterial lipoprotein and known TLR-2 ligand (Bachem H-9460)]
- IL-6 secretion [1]: resulted in IL-6 secretion
- IL-6 secretion [2]: did not
